These results are taken from ChEMBL document CHEMBL1806400, “New isoprenylated flavonoids and adipogenesis-promoting constituents from Morus notabilis” (2011).

Active and inactive are the calls of the source. The rule behind the calls is not given here.

The subject of assay [1] is 3T3-L1. The assay can be described thus: Upregulation of aP2 protein expression in mouse 3T3L1 cells by Western blot analysis. Format: functional, cell-based. A general note: Immunoblotting shows a protein as a band on a membrane.
Assay [2] has as its system 3T3-L1. The assay can be described thus: Upregulation of GLUT4 gene expression in mouse 3T3L1 cells by RT-PCR analysis. The class given is functional, cell-based.
Assay [3] relates to 3T3-L1. The experiment in a line: Induction of adipogenesis in mouse 3T3L1 cells assessed as increase in triglyceride content at 15 uM after 8 days by Oil red O staining relative to control. Format: functional.
The test system of assay [4] is 3T3-L1. The experiment in a line: Induction of adipogenesis in mouse 3T3L1 cells assessed as increase in triglyceride content at 7.5 uM after 8 days by Oil red O staining relative to control. The class given is functional.
Assay [5] concerns 3T3-L1. The assay can be described thus: Upregulation of GLUT4 protein expression in mouse 3T3L1 cells by Western blot analysis. The class given is functional, cell-based.
Assay [6] has as its system 3T3-L1. The experiment in a line: Upregulation of aP2 gene expression in mouse 3T3L1 cells by RT-PCR analysis. The class given is functional, cell-based.
In assay [7] the test system is 3T3-L1. The experiment in a line: Induction of adipogenesis in mouse 3T3L1 cells assessed as increase in triglyceride content at 10 uM after 8 days by Oil red O staining relative to control. Format: functional.
Assay [8] has as its system 3T3-L1. The assay can be described thus: Induction of adipogenesis in mouse 3T3L1 cells assessed as increase in triglyceride content at 5 uM after 8 days by Oil red O staining relative to control. Format: functional.
Assay [9] relates to 3T3-L1. The assay can be described thus: Induction of adipogenesis in mouse 3T3L1 cells assessed as increase in triglyceride content at 1 uM after 8 days by Oil red O staining relative to control. Format: functional.
Assay [10] has as its system 3T3-L1. The assay can be described thus: Induction of adipogenesis in mouse 3T3L1 cells assessed as increase in triglyceride content after 8 days by Oil red O staining relative to control. Format: functional, cell-based.

Turning to `CC(C)=CCC/C(C)=C/Cc1c(-c2oc3c(CC=C(C)C)c(O)cc(O)c3c(=O)c2O)ccc(O)c1O` [NOTABILISIN C], the outcome with 3T3-L1 [1], in the assay with 3T3-L1 [2], in the assay with 3T3-L1 [5] and in the assay with 3T3-L1 [6] was Active. The figures for the Activity in the assay with 3T3-L1 [3] and in the assay on 3T3-L1 [4] were 948.51% and 312.24%, respectively.
With `COc1c(-c2ccc(O)c(O)c2C/C=C(\C)CCC=C(C)C)oc2cc(O)cc(O)c2c1=O` [NOTABILISIN A], the outcome in the assay on 3T3-L1 [1], in the assay with 3T3-L1 [2], in the assay with 3T3-L1 [5] and in the assay with 3T3-L1 [6] was Active. Moreover, the results for the Activity with 3T3-L1 [7] and in the assay with 3T3-L1 [8] were 513.55% and 305.32%, respectively.
For the compound `CC(C)=CCc1c(O)ccc(C(=O)[C@H]2[C@@H](c3c(O)cc(-c4cc5ccc(O)cc5o4)cc3O)C=C(C)C[C@@H]2c2ccc(O)cc2O)c1O` [CHALCOMORACIN], the outcome in the assay with 3T3-L1 [1] was Active. For the same compound, the outcome in the assay with 3T3-L1 [2], in the assay with 3T3-L1 [5] and in the assay on 3T3-L1 [6] was inactive. For the same compound, the results for the Activity with 3T3-L1 [3] and in the assay with 3T3-L1 [4] were 125.36% and 109.99%, respectively.
In the case of `CN(CCOc1ccc(CC2SC(=O)NC2=O)cc1)c1ccccn1` (stereo not given) [ROSIGLITAZONE], the Activity with 3T3-L1 [9] turned out to be 984.24%.
On to `CC(C)=CCc1c(O)ccc(C(=O)[C@H]2[C@@H](c3c(O)ccc(C(=O)/C=C/c4ccc(O)cc4O)c3O)C=C(C)C[C@@H]2c2ccc(O)cc2O)c1O`, for which the result in the assay on 3T3-L1 [10] was inactive.
